The source of these data is ChEMBL document CHEMBL5653615 (J Biol Chem, 2013).

Experiment [1] addresses Casein kinase I isoform gamma-3 (Homo sapiens) (UniProt Q9Y6M4). The experiment can be described thus: Inhibition of human CK1g3 at 18.6 nM by HotSpot assay relative to control.
For experiment [2], the target named is Casein kinase I isoform epsilon (Homo sapiens) (UniProt P49674). Kind of experiment: Inhibition of human CK1epsilon at 18.6 nM by HotSpot assay relative to control.
For experiment [3], the target named is Tyrosine-protein kinase receptor UFO (Homo sapiens) (UniProt P30530). The experiment can be described thus: Inhibition of human AXL at 18.6 nM by HotSpot assay relative to control.
Sequence of Tyrosine-protein kinase receptor UFO (Homo sapiens) (P30530 whole entry): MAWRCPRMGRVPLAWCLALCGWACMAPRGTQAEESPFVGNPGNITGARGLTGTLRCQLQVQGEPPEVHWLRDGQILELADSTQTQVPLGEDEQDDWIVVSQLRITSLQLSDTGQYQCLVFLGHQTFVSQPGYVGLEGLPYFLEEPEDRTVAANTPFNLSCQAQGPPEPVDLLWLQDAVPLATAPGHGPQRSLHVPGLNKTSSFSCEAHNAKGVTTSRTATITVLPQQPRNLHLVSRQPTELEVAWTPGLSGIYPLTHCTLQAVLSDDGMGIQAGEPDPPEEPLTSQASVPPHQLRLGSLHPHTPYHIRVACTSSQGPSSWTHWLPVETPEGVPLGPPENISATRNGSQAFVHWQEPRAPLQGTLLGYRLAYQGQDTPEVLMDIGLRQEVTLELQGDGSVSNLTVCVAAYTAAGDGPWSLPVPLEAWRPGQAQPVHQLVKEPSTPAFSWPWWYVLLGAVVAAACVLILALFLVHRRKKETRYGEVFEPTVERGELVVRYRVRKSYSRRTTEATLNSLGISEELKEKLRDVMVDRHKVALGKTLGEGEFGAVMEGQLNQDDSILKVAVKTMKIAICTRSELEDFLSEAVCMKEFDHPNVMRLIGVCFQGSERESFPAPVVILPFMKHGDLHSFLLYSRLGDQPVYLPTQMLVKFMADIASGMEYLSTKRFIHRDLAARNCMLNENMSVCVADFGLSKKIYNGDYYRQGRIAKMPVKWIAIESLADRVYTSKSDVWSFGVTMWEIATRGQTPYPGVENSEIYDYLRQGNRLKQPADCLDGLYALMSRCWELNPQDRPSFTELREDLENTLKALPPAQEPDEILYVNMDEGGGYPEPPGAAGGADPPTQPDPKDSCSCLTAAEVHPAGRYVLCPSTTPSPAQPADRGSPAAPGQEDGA
In experiment [4] the target is G protein-coupled receptor kinase 6 (Homo sapiens) (UniProt P43250). The experiment can be described thus: Inhibition of human GRK6 at 18.6 nM by HotSpot assay relative to control.
Sequence of G protein-coupled receptor kinase 6 (Homo sapiens) (P43250 whole entry, looked up): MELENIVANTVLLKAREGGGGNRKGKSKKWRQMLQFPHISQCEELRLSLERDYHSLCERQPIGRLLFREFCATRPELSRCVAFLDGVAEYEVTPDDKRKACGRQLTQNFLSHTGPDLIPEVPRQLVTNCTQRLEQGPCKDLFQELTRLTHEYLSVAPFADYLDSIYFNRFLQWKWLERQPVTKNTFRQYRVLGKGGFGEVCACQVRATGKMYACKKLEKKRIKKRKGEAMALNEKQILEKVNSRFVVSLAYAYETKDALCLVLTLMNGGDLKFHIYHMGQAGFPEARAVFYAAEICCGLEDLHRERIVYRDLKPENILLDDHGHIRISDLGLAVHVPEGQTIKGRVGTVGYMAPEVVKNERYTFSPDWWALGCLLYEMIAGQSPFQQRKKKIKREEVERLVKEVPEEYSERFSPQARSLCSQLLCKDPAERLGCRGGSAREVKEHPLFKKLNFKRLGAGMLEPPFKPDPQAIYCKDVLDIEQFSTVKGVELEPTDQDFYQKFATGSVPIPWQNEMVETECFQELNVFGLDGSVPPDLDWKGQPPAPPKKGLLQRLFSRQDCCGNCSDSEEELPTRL
In experiment [5] the target is Macrophage colony-stimulating factor 1 receptor (Homo sapiens) (UniProt P07333). The experiment can be described thus: Inhibition of human FMS at 18.6 nM by HotSpot assay relative to control.
Experiment [6] concerns the target Mast/stem cell growth factor receptor Kit (Homo sapiens) (UniProt P10721). The experiment can be described thus: Inhibition of human c-Kit at 1.82 nM by HotSpot assay relative to control.
Experiment [7] concerns the target T1, Serine/threonine-protein kinase TBK1 (Homo sapiens) (UniProt Q9UHD2).
T1 sequence (whole entry): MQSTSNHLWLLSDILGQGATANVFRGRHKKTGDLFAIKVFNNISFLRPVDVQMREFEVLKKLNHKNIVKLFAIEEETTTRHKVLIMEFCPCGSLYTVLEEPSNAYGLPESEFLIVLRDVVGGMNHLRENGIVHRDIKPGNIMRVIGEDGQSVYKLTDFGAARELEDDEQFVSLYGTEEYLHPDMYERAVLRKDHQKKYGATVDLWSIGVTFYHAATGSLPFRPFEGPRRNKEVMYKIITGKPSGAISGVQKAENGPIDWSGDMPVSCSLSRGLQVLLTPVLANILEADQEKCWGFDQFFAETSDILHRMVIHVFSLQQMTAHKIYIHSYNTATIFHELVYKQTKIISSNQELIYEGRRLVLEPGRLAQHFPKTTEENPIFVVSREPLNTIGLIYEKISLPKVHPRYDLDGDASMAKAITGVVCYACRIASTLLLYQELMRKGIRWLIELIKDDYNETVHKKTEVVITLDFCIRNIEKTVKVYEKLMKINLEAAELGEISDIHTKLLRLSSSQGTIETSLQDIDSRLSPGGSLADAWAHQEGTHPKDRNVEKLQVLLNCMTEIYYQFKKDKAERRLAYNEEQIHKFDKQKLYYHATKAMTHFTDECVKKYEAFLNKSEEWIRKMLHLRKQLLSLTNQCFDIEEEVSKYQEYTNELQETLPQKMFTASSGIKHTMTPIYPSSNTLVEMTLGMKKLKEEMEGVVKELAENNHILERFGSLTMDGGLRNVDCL
The experiment can be described thus: Inhibition of human TBK1 at 1.82 nM by HotSpot assay relative to control.

The target in experiment [8] is T2, Inhibitor of nuclear factor kappa-B kinase subunit alpha (Homo sapiens) (UniProt O15111).
T2 sequence (whole entry): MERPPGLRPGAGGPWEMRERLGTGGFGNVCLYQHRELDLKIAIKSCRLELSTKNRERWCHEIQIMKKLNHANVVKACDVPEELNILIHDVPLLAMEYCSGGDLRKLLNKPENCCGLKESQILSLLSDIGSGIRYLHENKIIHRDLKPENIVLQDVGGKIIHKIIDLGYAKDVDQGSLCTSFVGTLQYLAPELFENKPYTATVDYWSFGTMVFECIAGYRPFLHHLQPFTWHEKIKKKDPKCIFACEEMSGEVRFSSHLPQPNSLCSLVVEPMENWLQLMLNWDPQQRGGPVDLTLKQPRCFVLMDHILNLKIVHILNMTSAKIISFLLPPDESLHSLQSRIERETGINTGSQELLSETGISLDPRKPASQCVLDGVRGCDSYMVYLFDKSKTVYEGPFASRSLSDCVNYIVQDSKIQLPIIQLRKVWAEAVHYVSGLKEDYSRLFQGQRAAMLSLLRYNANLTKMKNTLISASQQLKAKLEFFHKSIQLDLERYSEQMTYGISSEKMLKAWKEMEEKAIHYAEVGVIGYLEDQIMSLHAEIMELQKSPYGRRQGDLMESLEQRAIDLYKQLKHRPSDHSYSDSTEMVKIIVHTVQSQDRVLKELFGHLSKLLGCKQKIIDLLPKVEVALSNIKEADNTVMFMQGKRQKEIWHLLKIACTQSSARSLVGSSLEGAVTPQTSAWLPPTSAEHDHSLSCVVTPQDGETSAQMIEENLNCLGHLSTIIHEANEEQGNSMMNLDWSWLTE
Conditions: dose 1.82 nM.
Description: Inhibition of human IKKa at 1.82 nM by HotSpot assay relative to control

The target of experiment [9] is Tyrosine-protein kinase CSK (Homo sapiens) (UniProt P41240). The experiment can be described thus: Inhibition of human CSK at 1.82 nM by HotSpot assay relative to control.
Sequence of Tyrosine-protein kinase CSK (Homo sapiens) (P41240 2-450 limits assumed): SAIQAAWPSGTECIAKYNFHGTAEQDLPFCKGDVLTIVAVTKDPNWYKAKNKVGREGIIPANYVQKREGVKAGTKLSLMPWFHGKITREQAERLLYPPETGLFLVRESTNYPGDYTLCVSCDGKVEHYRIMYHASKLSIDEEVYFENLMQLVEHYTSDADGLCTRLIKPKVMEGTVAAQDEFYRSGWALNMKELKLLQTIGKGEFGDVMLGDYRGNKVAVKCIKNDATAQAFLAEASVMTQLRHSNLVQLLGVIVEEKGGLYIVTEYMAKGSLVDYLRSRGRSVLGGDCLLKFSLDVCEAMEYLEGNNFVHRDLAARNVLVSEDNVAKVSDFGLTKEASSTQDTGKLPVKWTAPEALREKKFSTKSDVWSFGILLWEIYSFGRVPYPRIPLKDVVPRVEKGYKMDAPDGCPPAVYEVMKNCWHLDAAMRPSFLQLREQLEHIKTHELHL
Experiment [10] has as its target PAS domain-containing serine/threonine-protein kinase (Homo sapiens) (UniProt Q96RG2). The experiment can be described thus: Inhibition of human PASK at 1.82 nM by HotSpot assay relative to control.
In experiment [11] the target is Serine/threonine-protein kinase PAK 1 (Homo sapiens) (UniProt Q13153). Kind of experiment: Inhibition of human PAK1 at 1.82 nM by HotSpot assay relative to control.
Sequence of Serine/threonine-protein kinase PAK 1 (Homo sapiens) (Q13153 whole entry): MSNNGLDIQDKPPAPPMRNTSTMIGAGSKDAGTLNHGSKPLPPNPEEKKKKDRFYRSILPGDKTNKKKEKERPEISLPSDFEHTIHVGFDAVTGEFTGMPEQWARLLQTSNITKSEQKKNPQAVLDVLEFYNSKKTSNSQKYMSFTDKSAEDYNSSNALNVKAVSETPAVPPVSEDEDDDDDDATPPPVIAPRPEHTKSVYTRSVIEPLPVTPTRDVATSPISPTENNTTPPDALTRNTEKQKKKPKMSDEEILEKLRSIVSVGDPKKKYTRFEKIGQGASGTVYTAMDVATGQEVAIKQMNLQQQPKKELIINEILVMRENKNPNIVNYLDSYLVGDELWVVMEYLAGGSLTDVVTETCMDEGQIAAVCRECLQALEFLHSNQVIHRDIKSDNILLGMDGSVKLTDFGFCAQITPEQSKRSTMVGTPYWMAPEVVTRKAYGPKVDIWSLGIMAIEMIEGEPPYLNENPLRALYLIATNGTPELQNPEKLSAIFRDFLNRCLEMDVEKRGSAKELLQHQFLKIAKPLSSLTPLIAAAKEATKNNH
Experiment [12] deals with T3, Serine/threonine-protein kinase Nek11 (Homo sapiens) (UniProt Q8NG66).
T3 sequence (whole entry): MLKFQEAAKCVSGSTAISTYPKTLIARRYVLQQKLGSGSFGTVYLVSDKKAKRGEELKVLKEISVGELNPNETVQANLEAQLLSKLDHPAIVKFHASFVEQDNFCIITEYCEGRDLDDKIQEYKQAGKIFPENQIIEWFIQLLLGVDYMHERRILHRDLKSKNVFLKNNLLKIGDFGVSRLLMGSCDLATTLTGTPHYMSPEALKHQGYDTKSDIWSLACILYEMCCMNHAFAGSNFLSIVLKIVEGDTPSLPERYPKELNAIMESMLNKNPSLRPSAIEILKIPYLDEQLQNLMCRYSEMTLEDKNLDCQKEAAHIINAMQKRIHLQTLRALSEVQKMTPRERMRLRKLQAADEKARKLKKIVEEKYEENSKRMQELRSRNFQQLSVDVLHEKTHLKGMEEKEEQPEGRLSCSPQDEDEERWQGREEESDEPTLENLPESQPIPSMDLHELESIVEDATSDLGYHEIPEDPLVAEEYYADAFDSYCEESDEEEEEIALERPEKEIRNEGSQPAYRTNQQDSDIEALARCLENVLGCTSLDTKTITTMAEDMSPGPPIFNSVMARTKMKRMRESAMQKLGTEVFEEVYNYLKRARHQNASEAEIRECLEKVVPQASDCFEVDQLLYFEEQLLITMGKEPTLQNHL
Kind of experiment: Inhibition of human NEK11 at 1.82 nM by HotSpot assay relative to control.

Sequence of PAS domain-containing serine/threonine-protein kinase (Homo sapiens) (Q96RG2 whole entry, the tested form may be a part): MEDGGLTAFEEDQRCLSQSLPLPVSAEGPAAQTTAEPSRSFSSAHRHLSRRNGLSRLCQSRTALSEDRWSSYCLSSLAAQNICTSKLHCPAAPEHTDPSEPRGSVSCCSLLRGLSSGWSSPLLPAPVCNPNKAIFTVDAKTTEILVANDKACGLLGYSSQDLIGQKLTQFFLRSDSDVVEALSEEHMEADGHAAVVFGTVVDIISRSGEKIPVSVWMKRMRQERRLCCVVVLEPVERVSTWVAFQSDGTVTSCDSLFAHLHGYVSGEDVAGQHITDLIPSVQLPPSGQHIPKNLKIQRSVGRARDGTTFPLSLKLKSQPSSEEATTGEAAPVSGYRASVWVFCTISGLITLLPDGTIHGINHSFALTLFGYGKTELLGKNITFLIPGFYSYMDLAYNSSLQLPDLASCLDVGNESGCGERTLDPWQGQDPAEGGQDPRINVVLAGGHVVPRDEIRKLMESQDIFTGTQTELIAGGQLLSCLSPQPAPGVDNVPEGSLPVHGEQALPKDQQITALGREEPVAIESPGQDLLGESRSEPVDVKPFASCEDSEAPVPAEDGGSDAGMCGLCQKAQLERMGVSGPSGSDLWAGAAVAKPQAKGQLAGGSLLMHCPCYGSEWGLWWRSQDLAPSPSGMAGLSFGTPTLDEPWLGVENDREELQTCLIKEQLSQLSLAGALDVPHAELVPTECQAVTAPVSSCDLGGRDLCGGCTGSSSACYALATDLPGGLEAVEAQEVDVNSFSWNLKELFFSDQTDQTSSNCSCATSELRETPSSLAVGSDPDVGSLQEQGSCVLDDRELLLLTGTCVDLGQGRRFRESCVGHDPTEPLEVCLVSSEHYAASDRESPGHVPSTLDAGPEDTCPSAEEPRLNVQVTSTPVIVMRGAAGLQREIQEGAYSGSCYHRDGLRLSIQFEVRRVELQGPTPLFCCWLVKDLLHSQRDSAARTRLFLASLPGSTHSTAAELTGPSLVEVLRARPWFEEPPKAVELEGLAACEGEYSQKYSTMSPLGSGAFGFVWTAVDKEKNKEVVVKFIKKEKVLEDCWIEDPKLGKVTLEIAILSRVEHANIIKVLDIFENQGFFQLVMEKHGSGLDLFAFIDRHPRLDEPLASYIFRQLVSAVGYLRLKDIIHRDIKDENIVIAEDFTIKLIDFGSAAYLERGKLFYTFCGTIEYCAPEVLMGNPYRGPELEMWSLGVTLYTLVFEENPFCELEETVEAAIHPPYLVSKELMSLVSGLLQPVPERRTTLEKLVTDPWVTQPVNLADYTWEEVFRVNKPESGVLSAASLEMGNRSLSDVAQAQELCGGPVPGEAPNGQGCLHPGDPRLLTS
Sequence of Mast/stem cell growth factor receptor Kit (Homo sapiens) (P10721 whole entry): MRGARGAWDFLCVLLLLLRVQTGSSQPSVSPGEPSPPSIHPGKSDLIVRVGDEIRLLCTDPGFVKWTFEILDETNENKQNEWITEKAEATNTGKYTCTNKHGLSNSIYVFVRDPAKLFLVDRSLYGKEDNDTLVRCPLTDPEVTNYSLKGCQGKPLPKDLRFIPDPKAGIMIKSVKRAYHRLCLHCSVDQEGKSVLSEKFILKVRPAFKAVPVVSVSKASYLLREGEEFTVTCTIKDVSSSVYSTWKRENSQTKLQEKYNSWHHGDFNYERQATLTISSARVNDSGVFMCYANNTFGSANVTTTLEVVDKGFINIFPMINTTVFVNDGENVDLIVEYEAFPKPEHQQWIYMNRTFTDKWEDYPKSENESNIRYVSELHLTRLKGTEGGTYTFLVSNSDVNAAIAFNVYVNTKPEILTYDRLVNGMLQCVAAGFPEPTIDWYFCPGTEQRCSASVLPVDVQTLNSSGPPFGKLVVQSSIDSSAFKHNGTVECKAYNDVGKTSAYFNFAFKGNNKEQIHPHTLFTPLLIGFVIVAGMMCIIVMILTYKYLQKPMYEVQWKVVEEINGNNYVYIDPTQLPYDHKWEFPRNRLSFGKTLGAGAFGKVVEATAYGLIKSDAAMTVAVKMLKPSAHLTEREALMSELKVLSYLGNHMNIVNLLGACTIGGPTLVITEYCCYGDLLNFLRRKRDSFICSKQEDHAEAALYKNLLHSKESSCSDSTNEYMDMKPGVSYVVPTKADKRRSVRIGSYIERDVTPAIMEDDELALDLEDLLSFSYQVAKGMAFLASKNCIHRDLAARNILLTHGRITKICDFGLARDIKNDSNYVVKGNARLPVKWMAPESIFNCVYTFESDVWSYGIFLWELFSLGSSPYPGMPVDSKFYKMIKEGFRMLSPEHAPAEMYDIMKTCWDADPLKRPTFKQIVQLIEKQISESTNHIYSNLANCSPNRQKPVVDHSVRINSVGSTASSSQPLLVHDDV

For `C[C@]1(O)C[C@@H](c2nc(-c3ccc4ccc(-c5ccccc5)nc4c3)c3c(N)nccn32)C1`, the inhibition is 1.42% in [1]; 0.64% in [2]; 3.94% in [3]; 3.48% in [4]; 5.25% in experiment [5].

On to `C[C@@]1(C(=O)Nc2ccc(F)nc2)CCCN1c1nc(Nc2cc(C3CC3)n[nH]2)c2cccn2n1`, for which the inhibition in [6] was 2.48%; in experiment [7], 7.68%; in experiment [8], 3.74%; in experiment [9], 3.45%; in [10] it was -2.46%; in experiment [11], 1.83%. In [12], the inhibition is -5.31%.
